The values that follow come from US6365628B1 (Thia Medica AS, priority 1998, dated 2002).

One experiment concerns obese Zucker fa/fa rats. The experiment can be described thus: Lipid lowering effect in obese Zucker fa/fa rats (Example 3). The settings on record: 300 mg/day/kg by gavage once daily for 10 days, control palmitic acid. The class given is in vivo, rat. Here is the method:
(§1) Glucose (GLU, Boehringer Mannheim, Germany), free fatty acids (NEFA, C ACS-ACOD kit; Wako Chemicals, Dalton, USA) and b-hydroxybutyrate (310-A kit; Sigma Diagnostics Inc., St. Louis, USA) concentrations were measured using enzymatic methods. Insulin concentrations were determined with radioimmunoassay by (CIS bio International, Gif sur Yvette, France) using rat insulin as standard in the Zucker rats. In the Wistar Charles River rats, plasma glucose concentrations were measured with the aid of Beckman Glucose Analyzer (Fullerton, Calif., USA). Plasma insulin levels were measured using a RIA kit from Linco Research Inc. (St. Charles, Mo., USA). Phospholipids were measured by the enzymatic method of bioMérieux, Marcy-l {grave over ( )}Etoile, France, Triacylglycerol by the Technicon Method no. SA4-0324L90, USA and Cholesterol by the Technicon Method no. SA4-0305L90, USA.
Male obese Zucker fa/fa rats, weighing 100 g at the start of the experiment, were housed in pairs in metal wire cages in a room maintained at 12 h light-dark cycles and a constant temperature of 20±3° C. The animals were acclimatised for at least one week under these conditions before the start of the experiment.
TTA (tetradecylthioacetic acid) prepared in accordance with procedure described previously, and palmitic acid (control), was suspended in 0.5% (w/v) carboxymethyl cellulose (CMC). Six animals were used in both groups. TTA (tetradecylthioacetic acid) and palmitic acid were administered at a dose of 300 mg/day/kg body weight, by gastric intubation (gavage) once daily for 10 days. The rats were fasted for 2 hours before termination of the experiment. Blood and organs were collected. Lipid concentrations in plasma were determined using an autoanalyzer, as described in the method section.

Experiment [1] concerns high fat diet fed Wistar Charles River rats. The experiment can be described thus: High fat diet with or without TTA for three weeks, adipose tissue weights (Example 5). The experiment is classed as in vivo, rat. Particulars: high fat diet + 0.4% TTA for three weeks, mean ± SEM. The procedure:
Male Wistar Charles River rats weighing 280-358 grams were purchased from AnLab Ltd. (Prague, Czech Republic) and housed in wire-mesh cages in a temperature (22±1° C.) and light-controlled (light from 7:00 a.m. to 7:00 p.m.) room. They were given free access to chow and water. Three rats were housed per cage. Weight gain and food intake were recorded daily.
High Fat (HF): 1.9% gelatin, 5.7% wheat bran, 7.7% vitamins and minerals, 25.4% corn starch, 25.7% casein, 26.8% beef tallow and 7.1% sunflower oil.
HF+TTA: Same+0.4% TTA dissolved in the beef tallow.
Male Wistar Charles River rats (280-360 g) were fed 3 different diets (see methods) for 3 weeks ad libitum. Afterwards, they were killed by decapitation, liver and epididymal adipose tissue pads were dissected out and weighed.
Feeding the Wistar rats the high fat diet thus increased the epididymal and retroperitoneal fad pad weight.

Experiment [2] relates to young obese Zucker (fa/fa) rats. The experiment can be described thus: Body weight gain, liver and adipose tissue weights in young obese Zucker rats (Example 9). The class given is in vivo, rat. Particulars: 5 week-old male obese Zucker (fa/fa) rats, TTA 300/kg/day in 0.5% CMC, 11 days, means ± SD. The procedure: The obese Zucker (fa/fa) rats used in this study were bred at the U 465 INSERM animal facility from pairs originally provided by the Harriet G. Bird Laboratory (Stow, Mass., USA). Unless otherwise stated, the animals were maintained under a constant light-dark cycle (light from 7:00 a.m. to 7:00 p.m.) at 21±1° C. and were given free access to food and water. Three rats were housed per cage. Weight gains were recorded daily.
5 week-old male obese Zucker (fa/fa) rats fed with TTA, 300/kg/day suspended in 0.5% CMC. Control animals received CMC only. Following 11 days of treatment, rats were killed by cervical dislocation, liver and epididymal adipose tissue pads were dissected out and weighed. Data are means±SD of 6 animals in the control- and 6 animals in the experimental group.

The test system of the next experiment is male dogs. The experiment can be described thus: Body weights of male dogs treated for 4 weeks (Example 10). The experiment is classed as in vivo, dog. The settings on record: 500 mg/kg/day orally in capsules. Here is the method:
3 male dogs (4-6 months old) were housed singly during the days. Each animal was offered 400 g of SQC Diet A each morning after dosing and any residue diet was removed in the afternoon. The drug was administered orally in capsules once daily for 28 days.

In experiment [3] the test system is Wistar Charles River rats. The experiment can be described thus: High fat diet induced hyperinsulinemia (Example 11). The class given is in vivo, rat. The settings on record: HF diet supplemented with TTA, 21 days, overnight fast (FIG. 3). The procedure:
as §1
Rats weighing 280-360 g were divided into 3 groups (n=6) and fed with three different diets: standard rat chow, high fat diet (HF) and HF supplemented with TTA. After 21 days on their respective diets, blood was collected after an overnight fast from the tail vein. The data are shown as mean±SEM. Results were analysed by ANOVA and different letters denote statistical significance (p<0.05).

The test system of a further experiment is Wistar rats. The experiment can be described thus: Lipid lowering effect in normal Wistar rats (Example 4). The experiment is classed as in vivo, rat. The settings on record: gavage once daily for 7 days, dose 150 mg/day/kg body weight.

Method for Wistar rats: Male Wistar rats, weighing 180-200 g at the start of the experiment, were housed individually in metal wire cages in a room maintained at 12 h light-dark cycles and a constant temperature of 20±3° C. The animals were acclimatised for one week under these conditions before the start of the experiments.
TTA, TSA and eicosapentaenoic acid (EPA) were suspended in 0.5% (w/v) carboxymethyl cellulose (CMC). Six animals were used for each treatment, and a 0.5% CMC solution was administrated to the rats as control. After administration of the test compound, the rats were fasted for 12 hours and anaesthetised with haloethan. The EPA and the fatty acid derivatives were administered by gastric intubation (gavage) once daily for 7 days. Blood samples were collected by cardiac puncture, and lipid concentrations in plasma were determined as outlined in the method section.

Regarding Tetradecylthioacetic acid [TTA], in the experiment on obese Zucker fa/fa rats, the “Decreased lipid level in plasma (% of control) Cholesterol” value is reported as 73 % of control, the “Decreased lipid level in plasma (% of control) Phospholipids” value is reported as 71 % of control and the “Decreased lipid level in plasma (% of control) Triglycerides” value is 72 % of control. In experiment [1], the “Epididymal adipose tissue” value came out at 3.1 ± 0.2 g, the “Epididymal adipose tissue/body weight (%)” value is 1.0 ± 0.1%, the “Retroperitoneal adipose tissue” value worked out at 2.7 ± 0.2 g and the “Retroperitoneal adipose tissue/body weight (%)” value came to 0.8 ± 0.05%. Further, in experiment [2], the “Body weight gain” value is on record as 6.23 ± 0.28 g/day and the “Epididymal adipose tissue/body weight (%)” value is listed as 0.78 ± 0.02%. Moreover, in the experiment with male dogs (week 0), the “Mean body weight (kg)” value is 9,22 ± 1,77 kg. For the same substance, in the experiment with male dogs (week 1), the “Mean body weight (kg)” value is 8,95 kg. Further, the “Mean body weight (kg)” value with male dogs (week 2) is given as 8,75 ± 1,58 kg. Moreover, the “Mean body weight (kg)” value in the experiment on male dogs (week 3) is 8,58 kg. Besides, in the experiment with male dogs (week 4), the “Mean body weight (kg)” value is listed as 8,50 ± 1,74 kg. The “High fat diet-induced hyperinsulinemia” value in experiment [3] was “prevents high fat diet-induced hyperinsulinemia”. Moreover, in the experiment on Wistar rats, the “Plasma lipids (% reduction of control) cholesterol” value is recorded as 30 % reduction of control and the “Plasma lipids (% reduction of control) triglycerides” value is listed as 45 % reduction of control.
